The source of these data is ChEMBL document CHEMBL5543163, “Druglike, 18F-labeled PET Tracers Targeting Fibroblast Activation Protein” (J Med Chem, 2024).

In general, IC50 refers to the concentration that inhibits the measured activity by half. A lower IC50 goes with greater potency in that assay.

Structures are written as SMILES.

For one assay, the target named is T1, Prolyl endopeptidase FAP (Homo sapiens, UniProt Q12884).
T1 sequence (Q12884 whole entry): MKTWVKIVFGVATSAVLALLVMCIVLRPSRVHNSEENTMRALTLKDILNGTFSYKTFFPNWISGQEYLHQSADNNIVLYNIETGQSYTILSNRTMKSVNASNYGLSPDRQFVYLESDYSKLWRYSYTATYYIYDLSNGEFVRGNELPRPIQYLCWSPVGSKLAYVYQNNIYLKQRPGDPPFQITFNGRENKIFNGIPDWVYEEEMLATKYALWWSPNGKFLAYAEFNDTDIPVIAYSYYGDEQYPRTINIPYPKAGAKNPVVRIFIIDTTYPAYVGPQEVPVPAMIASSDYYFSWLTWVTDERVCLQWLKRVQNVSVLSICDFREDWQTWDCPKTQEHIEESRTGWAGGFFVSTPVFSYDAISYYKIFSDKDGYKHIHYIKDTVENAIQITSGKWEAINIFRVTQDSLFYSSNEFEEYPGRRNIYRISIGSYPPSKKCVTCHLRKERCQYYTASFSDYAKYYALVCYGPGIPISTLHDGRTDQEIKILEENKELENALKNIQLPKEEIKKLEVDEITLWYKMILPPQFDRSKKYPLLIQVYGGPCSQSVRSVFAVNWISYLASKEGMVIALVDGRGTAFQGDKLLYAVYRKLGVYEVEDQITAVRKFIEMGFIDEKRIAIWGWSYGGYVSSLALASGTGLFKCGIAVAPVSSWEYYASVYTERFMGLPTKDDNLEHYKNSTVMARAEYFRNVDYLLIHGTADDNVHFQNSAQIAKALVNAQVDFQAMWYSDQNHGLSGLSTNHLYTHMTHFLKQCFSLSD
Description: Inhibition of FAP (unknown origin).

In another assay the target is T2, Prolyl endopeptidase (Homo sapiens, UniProt P48147).
T2 sequence (P48147 whole entry): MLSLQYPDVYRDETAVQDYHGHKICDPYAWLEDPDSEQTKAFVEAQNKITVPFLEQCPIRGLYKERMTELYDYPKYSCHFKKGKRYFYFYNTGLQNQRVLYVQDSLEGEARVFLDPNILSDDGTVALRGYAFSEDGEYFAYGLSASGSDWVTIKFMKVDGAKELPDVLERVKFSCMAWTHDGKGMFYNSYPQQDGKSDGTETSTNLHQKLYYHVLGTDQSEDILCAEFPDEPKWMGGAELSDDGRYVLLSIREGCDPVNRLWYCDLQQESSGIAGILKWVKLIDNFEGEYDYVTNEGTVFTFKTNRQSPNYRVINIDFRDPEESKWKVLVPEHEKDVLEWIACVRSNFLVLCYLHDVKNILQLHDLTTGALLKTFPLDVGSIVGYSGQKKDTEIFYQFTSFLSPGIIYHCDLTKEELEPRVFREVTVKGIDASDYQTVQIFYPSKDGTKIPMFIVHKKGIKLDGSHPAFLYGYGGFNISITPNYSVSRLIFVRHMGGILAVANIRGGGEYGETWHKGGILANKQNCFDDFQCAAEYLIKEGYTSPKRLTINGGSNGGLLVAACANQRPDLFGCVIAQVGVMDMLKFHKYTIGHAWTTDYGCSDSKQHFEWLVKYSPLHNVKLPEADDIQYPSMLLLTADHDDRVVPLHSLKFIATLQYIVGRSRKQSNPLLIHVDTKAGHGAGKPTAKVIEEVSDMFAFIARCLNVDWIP
Description: Inhibition of PREP (unknown origin).

On to `CN(CC(=O)O)C1(CCCCNCCNc2c(NCCCCOc3ccc4nccc(C(=O)NCC(=O)N5CC(F)(F)C[C@H]5C#N)c4c3)c(=O)c2=O)CN(CC(=O)O)CCN(CC(=O)O)C1`, for which the values for the IC50 on Prolyl endopeptidase FAP and against Prolyl endopeptidase were 0.8 nM and 1700 nM, respectively.
